Experiments:
[1] = tested on: A498 renal cell carcinoma xenograph; experiment: In vivo anticancer efficacy in HTB44/A498 renal cell carcinoma model; settings: conjugate i.v. 1× weekly 15 mg/kg, 2 rounds; Intron A ip 3× weekly 0.5 mU, 2 weeks
Protocol: This study utilized a model of renal cancer performed as previously described. See, e.g., Yu K, et al., PWT-458, A Novel Pegylated-17-Hydroxywortmannin, Inhibits Phosphatidylinositol 3-Kinase Signaling and Suppresses Growth of Solid Tumors. Cancer Biol Ther. May 28, 2005; 4(5).
On day 23 the Vehicle group ([…]) was redosed with a combination 42,17′-linked wortmannin-suberate-rapamycin N,N,N′-trimethyl 1,3-propanediamine adduct (30 mg/kg) and the Avastin® drug (200 μg) for five rounds. On day 43, the 42,17′-linked wortmannin-suberate-rapamycin conjugate, N,N,N′-trimethyl 1,3-propanediamine adduct group (30 mg/kg) and the Avastin® drug group (200 μg) were redosed with a combination of 42,17′-linked wortmannin-suberate-rapamycin conjugate, N,N,N′-trimethyl 1,3-propanediamine adduct and the Avasting drug for three rounds.

HCT116 = experiment: In vitro cell culture growth assay (MTS), HCT116; type: cell-based, Human; settings: colon line, 3 days after drug treatment
Protocol: (§1) Human tumor cell lines (Table 3) include prostate lines LNCap and PC3MM2, breast lines MDA468, MCF7, renal line HTB44 (A498), colon line HCT116, and ovarian line OVCAR3. Cells were plated in 96-well culture plates.
(§2) One day following plating, the following conjugates (inhibitors) were added to cells: • Compound A 42,17′-linked wortmannin-adipate-rapamycin conjugate, diethylamine adduct • Compound B 42,17′-linked wortmannin-adipate-rapamycin conjugate. • Compound C 42,17′-linked wortmannin-succinate-rapamycin conjugate, N,N,N′-trimethyl 1,3-propanediamine adduct • Compound D 42,17′-linked wortmannin-adipate-rapamycin conjugate, diallylamine adduct • Compound E 42,17′-linked wortmannin-adipate-rapamycin conjugate, N,N,N′-trimethyl 1,3-propanediamine adduct • Compound F 42,17′-linked wortmannin-suberate-rapamycin conjugate, N,N,N′-trimethyl 1,3-propanediamine adduct.
(§3) Three days after drug treatment, viable cell densities were determined by metabolic conversion (by viable cells) of the MTS dye (3-(4,5-dimethylthiazol-2-yl)-5-(3 carboxymethoxyphenyl)-2-(4-sulfophenyl)-2H-tetrazolium, inner salt), a well established cell proliferation assay. The assays were performed using an assay kit purchased from Promega Corp. (Madison, Wis.) following the protocol supplied with the kit. The MTS assay results were read in a 96-well plate reader by measuring absorbance at 490 nm. The effect of each treatment was calculated as percent of control growth relative to the vehicle-treated cells grown in the same culture plate. The drug concentration that conferred 50% inhibition of growth was determined as IC50 (μg/mL). See, Table 3.

OVCAR3 = experiment: In vitro cell culture growth assay (MTS), OVCAR3; type: cell-based, Human; settings: ovarian line, 3 days after drug treatment
Protocol: as §1, §2, §3

[2] = tested on: HT29 colon tumor xenograph; type: in vivo; settings: 1× weekly for four rounds
Protocol: The effect of 42,17′-linked wortmannin-suberate-rapamycin conjugate, N,N,N′-trimethyl 1,3-propanediamine adduct, prepared as described in Example 4 was studied in a model of human colon cancer.
The 42,17′-linked wortmannin-suberate-rapamycin conjugate, N,N,N′-trimethyl 1,3-propanediamine adduct (▪, 15 mg/kg), rapamycin (▴, 10 mg/kg), 17-hydroxywortmannin N,N,N′-trimethyl 1,3-propanediamine adduct (▾, 5 mg/kg) and a physical combination of rapamycin (10 mg/kg) and 17-hydroxywortmannin N,N,N′-trimethyl 1,3-propanediamine adduct (5 mg/kg) were dosed 1× weekly for four rounds against a HT29 colon tumor xenograph. Vehicle served as a negative control ([…]).

U87MG Glioma Xenografts = experiment: Xenograft tumor efficacy study, U87MG glioma in nude mice; type: in vivo
Protocol: Female nude mice at 10 weeks of age were inoculated subcutaneously on the flank with 200 μL U87MG (human gliobastoma) tumor cell suspension. U87MG cells were suspended in full growth media and were implanted at 10 million cells per mouse. Mice were staged when tumors reached approximately 200 mm^3 in sizes. Tumor bearing mice at staging (day 0) were randomized into treatment groups (n=10). […]
The growth of tumors was monitored twice a week for the duration of the experiment. Tumor size was measured using sliding vernier calipers, and the tumor mass was calculated using the formula (length×Width^2)/2.
The experimental methods for drug preparation, dosing route, regimen, etc (listed in the Table 4) were similar to the experiments presented in the Figures. The data in Table 4 and the Figures were derived from multiple and completely different experiments. Within Table 4, the data contained separate experiments.

MDA468 = experiment: In vitro cell culture growth assay (MTS), MDA468; type: cell-based, Human; settings: breast line, 3 days after drug treatment
Protocol: as §1, §2, §3

LNCap = experiment: In vitro cell culture growth assay (MTS), LNCap; type: cell-based, Human; settings: prostate line, 3 days after drug treatment
Protocol: as §1, §2, §3

HTB44 (A498) = experiment: In vitro cell culture growth assay (MTS), HTB44 (A498); type: cell-based, Human; settings: renal line, 3 days after drug treatment
Protocol: as §1, §2, §3

MCF7 = experiment: In vitro cell culture growth assay (MTS), MCF7; type: cell-based, Human; settings: breast line, 3 days after drug treatment
Protocol: as §1, §2, §3

PC3MM2 = experiment: In vitro cell culture growth assay (MTS), PC3MM2; type: cell-based, Human; settings: prostate line, 3 days after drug treatment
Protocol: as §1, §2, §3

## 42,17′-linked wortmannin-suberate-rapamycin conjugate, N,N,N′-trimethyl 1,3-propanediamine adduct [Compound F]
[1]
  antitumor activity (FIG. 6): increased antitumor activity as compared to vehicle and Intron® A reagent alone
HCT116
  IC50 inhibition of tumor cell growth, HCT116: 12.75 µg/mL
OVCAR3
  IC50 inhibition of tumor cell growth, OVCAR3: 6.48 µg/mL
[2]; 15 mg/kg, in contrast to physical combination
  tolerability (FIG. 5): better tolerated
[2]; conjugate 15 mg/kg, combination rapamycin 10 mg/kg + 17-hydroxywortmannin adduct 5 mg/kg
  tumor reduction (FIG. 5): significant tumor reduction
U87MG Glioma Xenografts; 15 mg/kg, 1× weekly for 2 rounds
  antitumor efficacy versus physical combination (FIG. 3): at least as active as the physical combination
U87MG Glioma Xenografts; single dose 30, 45 and 60 mg/kg
  efficacy after a single dose (FIG. 4): effective in the intermittent regimen
MDA468
  IC50 inhibition of tumor cell growth, MDA468: 0.50 µg/mL
LNCap
  IC50 inhibition of tumor cell growth, LNCap: 0.06 µg/mL
HTB44 (A498)
  IC50 inhibition of tumor cell growth, HTB44: 2.10 µg/mL
MCF7
  IC50 inhibition of tumor cell growth, MCF7: 0.24 µg/mL
PC3MM2
  IC50 inhibition of tumor cell growth, PC2MM2: 1.00 µg/mL
